One assay deals with T1, human P2X4 (Homo sapiens, UniProt Q99571).
T1 construct: expressed in transfected cells
T1 sequence (Q99571 1-388): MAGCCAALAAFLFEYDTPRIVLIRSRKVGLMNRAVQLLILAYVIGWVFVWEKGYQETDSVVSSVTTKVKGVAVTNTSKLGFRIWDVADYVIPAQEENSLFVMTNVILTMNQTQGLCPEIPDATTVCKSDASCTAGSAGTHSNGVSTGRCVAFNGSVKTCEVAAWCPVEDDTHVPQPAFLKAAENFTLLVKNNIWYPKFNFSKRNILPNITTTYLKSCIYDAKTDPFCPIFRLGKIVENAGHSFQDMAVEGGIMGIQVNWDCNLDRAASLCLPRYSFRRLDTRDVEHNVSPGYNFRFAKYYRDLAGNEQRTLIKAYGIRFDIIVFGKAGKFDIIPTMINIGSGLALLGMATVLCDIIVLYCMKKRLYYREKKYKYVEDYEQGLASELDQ
The assay is described as follows: Human P2X4 HEK Cell FLIPR Assay. The format is cell-based. The settings on record: HEK293 stably expressing human P2X4, agonist Bz-ATP 3 μM (EC80); for IC50: read-out: Human P2X4 HEK Cells (FLIPR Assay) avg IC50. In a few lines: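 Compounds were preincubated 30 min at room temperature on Fluo8-AM-loaded HEK293 cells stably expressing human P2X4. The response was the calcium fluorescence rise on Bz-ATP addition.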

A further assay deals with T2, rat P2X4 (Rattus norvegicus, UniProt P51577).
T2 construct: expressed in transfected cells
T2 sequence (P51577 1-388): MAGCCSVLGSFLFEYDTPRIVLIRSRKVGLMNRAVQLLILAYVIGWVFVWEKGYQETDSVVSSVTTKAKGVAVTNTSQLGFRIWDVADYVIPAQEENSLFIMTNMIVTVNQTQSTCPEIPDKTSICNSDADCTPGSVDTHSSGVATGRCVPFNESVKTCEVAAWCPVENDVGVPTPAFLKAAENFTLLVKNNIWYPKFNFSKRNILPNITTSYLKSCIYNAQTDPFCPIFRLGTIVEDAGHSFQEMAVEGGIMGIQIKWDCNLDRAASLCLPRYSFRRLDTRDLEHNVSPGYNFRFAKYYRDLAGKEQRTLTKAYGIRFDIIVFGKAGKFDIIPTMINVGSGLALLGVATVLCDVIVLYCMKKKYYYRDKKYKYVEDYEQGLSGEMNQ
Description: FLIPR Method for Rat P2X4 1321N1 Astrocytoma Cells. It counts as cell-based. The settings on record: 1321N1 stably expressing rat P2X4; agonist MgATP 5 μM (EC80). As for the experimental part: Compounds were tested on a 1321N1 cell line stably expressing rat P2X4. Cells were cultured on collagen-I-coated 384-well plates at a density of 10,000 cells/well and incubated overnight at 37° C., 5% CO2. P2X4 function was assessed by measuring intracellular calcium fluxes caused by Magnesium-ATP (MgATP) using the calcium-chelating dye Fluo8-AM (Molecular Devices) with the Fluorescent Imaging Plate Reader Tetra (FLIPR^Tetra; Molecular Devices CA). On the day of the assay, the medium was removed and the cells were incubated for 30 minutes at 37° C. and 5% CO2 in 30 μl of dye buffer (Hank's balanced salt solution, 10 mM HEPES, 1.8 mM CaCl2, 1 mM MgCl2, 2 mM probenecid, 5 mM D-glucose monohydrate, 5 μM Fluo8-AM, pH=7.4).
Compounds diluted in probenecid buffer (Hank's balanced salt solution, 10 mM HEPES, 1.8 mM CaCl2, 1 mM MgCl2, 2 mM probenecid, 5 mM D-glucose monohydrate, pH=7.4) at ten concentrations ranging from 25 μM to 1 nM (final concentration) were dispensed and incubated for 30 minutes at room temperature. The agonist, MgATP (Sigma-Aldrich Chemie GmbH, DE), was added at a final concentration of 5 μM, representing the EC80 routinely determined. The final assay volume was 50 μl and final DMSO concentration was 0.5%.
The fluorescence intensity reflecting intracellular calcium changes was recorded before and after MgATP addition, at an excitation and emission wavelengths of 470-495 nm and 515-575 nm respectively.
The compounds were tested in triplicates and fluorescence intensity raw data normalized to the agonist control and fitted to the four-parameter logistic equation:
Y=Bottom+(Top−Bottom)/(1+10^((Log IC50−X)*HillSlope))
Assay plate acceptance was based on the signal window (S/B)[…] and the reference compound pIC50 within ±[…] the mean of historic pIC50 of the compound. Failure to meet two of the three criteria determined exclusion of the plate's results. In Table 10 below the results for the assays are reported

Structures are written as SMILES.

With `CC(=O)N(c1ccc(F)c(C#N)c1)c1cc(NC(=O)Cc2ccccc2Cl)ccn1` [Example 21, N-{4-[2-(2-chlorophenyl)acetamido]pyridin-2-yl}-N-(3-cyano-4-fluorophenyl)acetamide], on human P2X4, the “Human P2X4 HEK Cells (FLIPR Assay) avg Efficacy” value (“Human P2X4 HEK Cells” for short) stood at 91% and the IC50 came to 0.343 µM. Moreover, at rat P2X4, the concentration for half-maximal inhibition (IC50) was 0.374 µM and the “Rat P2X4 1321N1 Astrocytoma Cells (FLIPR Assay) avg Efficacy” value (shortened to “Rat P2X4 1321N1 Astrocytoma Cells”) was 90%.
For `CC(=O)N(c1ccc(F)c(C#N)c1)c1cc(NC(=O)Cc2ccc(F)cc2Cl)ccn1` [Example 22, N-{4-[2-(2-chloro-4-fluorophenyl)acetamido]pyridin-2-yl}-N-(3-cyano-4-fluorophenyl)acetamide], in that order: 98%, 0.482 µM, 0.217 µM and 95%.
The corresponding values for `CC(=O)N(c1ccc(F)c(C#N)c1)c1cc(NC(=O)Cc2cccc(F)c2Cl)ccn1` [Example 23, N-{4-[2-(2-chloro-3-fluorophenyl)acetamido]pyridin-2-yl}-N-(3-cyano-4-fluorophenyl)acetamide] are 99%, 0.356 µM, 0.483 µM and 96%.
The corresponding values for `CC(=O)N(c1ccc(F)c(C#N)c1)c1cc(NC(=O)Cc2c(Cl)cccc2Cl)ccn1` [Example 24, N-(3-cyano-4-fluorophenyl)-N-{4-[2-(2,6-dichlorophenyl)acetamido]pyridin-2-yl}acetamide] are 100%, 0.346 µM, 0.174 µM and 99%.
For `CC(=O)N(c1ccccc1)c1cc(NC(=O)Cc2ccccc2Cl)ccn1` [Example 25, N-{4-[2-(2-chlorophenyl)acetamido]pyridin-2-yl}-N-phenylacetamide], at human P2X4, the “Human P2X4 HEK Cells” value was 100% and the IC50 came out at 0.524 µM. Moreover, on rat P2X4, the 50% inhibitory concentration (IC50) amounted to 0.851 µM and the “Rat P2X4 1321N1 Astrocytoma Cells” value amounted to 100%.
`CC(=O)N(c1ccccc1)c1cc(NC(=O)Cc2ccc(F)cc2Cl)ccn1` [Example 26, N-{4-[2-(2-chloro-4-fluorophenyl)acetamido]pyridin-2-yl}-N-phenylacetamide]: at human P2X4, the “Human P2X4 HEK Cells” value amounted to 102% and the IC50 is 0.66 µM. At rat P2X4, the half-maximal inhibitory concentration (IC50) is 0.649 µM and the “Rat P2X4 1321N1 Astrocytoma Cells” value is 101%.
On to `CC(=O)N(c1ccccc1)c1cc(NC(=O)Cc2c(Cl)cccc2Cl)ccn1` [Example 27, N-{4-[2-(2,6-dichlorophenyl)acetamido]pyridin-2-yl}-N-phenylacetamide], for which, at human P2X4, the “Human P2X4 HEK Cells” value was 97% and the IC50 was determined as 0.242 µM. For the same molecule, at rat P2X4, the IC50 is 0.652 µM and the “Rat P2X4 1321N1 Astrocytoma Cells” value amounted to 99%.
The corresponding values for `CC(=O)N(c1ccc(F)cc1)c1cc(NC(=O)Cc2cccc(C)c2C)ccn1` [Example 29, N-{4-[2-(2,3-dimethylphenyl)acetamido]pyridin-2-yl}-N-(4-fluorophenyl)acetamide] are 91%, 0.391 µM, 0.0925 µM and 77%.
The corresponding values for `CC(=O)N(c1ccc(F)cc1)c1cc(NC(=O)Cc2ccccc2C(F)(F)F)ccn1` [Example 30, N-(4-fluorophenyl)-N-(4-{2-[2-(trifluoromethyl)phenyl]acetamido}pyridin-2-yl)acetamide] are 98%, 0.384 µM, 0.727 µM and 96%.
The corresponding values for `CC(=O)N(c1ccc(F)cc1)c1cc(NC(=O)Cc2cccc(F)c2C(F)(F)F)ccn1` [Example 32, N-(4-fluorophenyl)-N-(4-{2-[3-fluoro-2-(trifluoromethyl)phenyl]acetamido}pyridin-2-yl)acetamide] are 101%, 0.355 µM, 0.801 µM and 100%.
As to `CC(=O)N(c1ccc(F)cc1)c1cc(NC(=O)Cc2c(Cl)cccc2C#N)ccn1` [Example 33, N-{4-[2-(2-chloro-6-cyanophenyl)acetamido]pyridin-2-yl}-N-(4-fluorophenyl)acetamide], at human P2X4, the “Human P2X4 HEK Cells” value came out at 93% and the 50% inhibitory concentration (IC50) was 0.723 µM. Also, at rat P2X4, the IC50 stood at 1.54 µM and the “Rat P2X4 1321N1 Astrocytoma Cells” value is 98%.
For `CC(=O)N(c1ccc(F)cc1)c1cc(NC(=O)Cc2c(C)cccc2C)ccn1` [Example 34, N-{4-[2-(2,6-dimethylphenyl)acetamido]pyridin-2-yl}-N-(4-fluorophenyl)acetamide], in that order: 97%, 0.199 µM, 0.17 µM and 94%.
Turning to `CC(=O)N(c1ccc(F)cc1)c1cc(NC(=O)Cc2ccccc2Cl)ccn1` [Example 36, N-{4-[2-(2-chlorophenyl)acetamido]pyridin-2-yl}-N-(4-fluorophenyl)acetamide], at human P2X4, the “Human P2X4 HEK Cells” value amounted to 91% and the IC50 came out at 0.206 µM. Also, at rat P2X4, the concentration for half-maximal inhibition (IC50) came out at 0.29 µM and the “Rat P2X4 1321N1 Astrocytoma Cells” value is listed as 90%.
The corresponding values for `CC(=O)N(c1ccc(F)cc1)c1cc(NC(=O)Cc2ccc(F)cc2Cl)ccn1` [Example 37, N-{4-[2-(2-chloro-4-fluorophenyl)acetamido]pyridin-2-yl}-N-(4-fluorophenyl)acetamide] are 95%, 0.894 µM, 0.242 µM and 96%.
The corresponding values for `CC(=O)N(c1ccc(F)cc1)c1cc(NC(=O)Cc2c(Cl)cccc2Cl)ccn1` [Example 38, N-{4-[2-(2,6-dichlorophenyl)acetamido]pyridin-2-yl}-N-(4-fluorophenyl)acetamide] are 96%, 0.232 µM, 0.136 µM and 98%.
Consider `CC(=O)N(c1ccc(F)cc1)c1cc(NC(=O)Cc2c(Cl)cc(F)cc2Cl)ccn1` [Example 39, N-{4-[2-(2,6-dichloro-4-fluorophenyl)acetamido]pyridin-2-yl}-N-(4-fluorophenyl)acetamide], for which, on human P2X4, the “Human P2X4 HEK Cells” value worked out at 100% and the IC50 was 0.335 µM. Also, at rat P2X4, the IC50 worked out at 0.152 µM and the “Rat P2X4 1321N1 Astrocytoma Cells” value amounted to 98%.
As for `CC(=O)N(c1ccc(F)cc1)c1cc(NC(=O)Cc2c(F)cccc2Cl)ccn1` [Example 40, N-{4-[2-(2-chloro-6-fluorophenyl)acetamido]pyridin-2-yl}-N-(4-fluorophenyl)acetamide], on human P2X4, the “Human P2X4 HEK Cells” value worked out at 90% and the IC50 is 0.308 µM. Moreover, on rat P2X4, the half-maximal inhibitory concentration (IC50) came out at 0.194 µM and the “Rat P2X4 1321N1 Astrocytoma Cells” value was determined as 75%.

(Values after patent publication US20230257351A1, “SUBSTITUTED N-[…] HAVING P2X4 RECEPTOR ANTAGONISTIC ACTIVITY” (Bayer Aktiengesellschaft, priority 2020, published 2023).)
